Tests used:
sore throat = test: Lysine nasal inhalation or throat spray for sore throat; format: in vivo, human; conditions: one test subject
From the text: A test subject used nasal inhalation of lysine every three hours to treat a sore throat and reported relief after one day.
Another test subject who has suffered from throat infections for many years used the lysine spray directly into the throat at the first sign of soreness on at least four occassions. The treatment was repeated every three to four hours for two days.

cold virus [1] = test: Nasal spray of lysine solution in test subjects with colds or flu; format: in vivo, human
[2] = cited from earlier work
herpes simplex II = test: Lysine nasal spray for herpes outbreaks; format: in vivo, human
cold virus [3] = test: Nasal spray of lysine after exposure to persons with severe colds; format: in vivo, human; conditions: nasal spray continued for at least three days after exposure to persons with severe colds
From the text: The administration of lysine in the form of a nasal spray was used by other test subjects after being exposed to persons with severe colds, that is persons who were frequently coughing and sneezing.

canker sore = test: Lysine solution applied directly to canker sores and cold sores; format: in vivo, human
From the text: Another test subject with a long history of canker sore outbreaks reported that once one canker sore appeared several more usually followed within a day or two. These sores were quite painful and often lasted from five to ten days. The subject was given the lysine solution and told to apply it directly to the lesion. […] The application was repeated every three or four hours until the canker sore was completely healed. […] Since this subject has been using the lysine solution the outbreaks of canker sores are infrequent and are healed very quickly.
As shown above, the use of lysine by targeting the infected areas may shorten the duration of the outbreak and may even prevent illnesses such as colds and sore throats if used directly after contact with an infected person or at the onset of symptoms. Essentially the use of the lysine solution or composition in the nose, mouth and/or lungs, or other specific areas of the body may represent a topical application of lysine to the infected area. Thus, the duration of an infection may be considerably lessened by applying lysine to that infected area.

[4] = system: upper respiratory infections settled in the lungs; test: Lysine solution by nebulizer directly into the lungs; format: in vivo, human; conditions: one test subject
From the text: Often upper respiratory infections settle in the lungs and can cause prolonged discomfort, coughing and heavy chest congestion.

[5] = ten test subjects, cold virus, […], 3500 mg lysine in 1.5 oz. 0.65% saline, spray twice in each nostril every three hours

Cl.NCCCC[C@H](N)C(=O)O [lysine, L-lysine monohydrochloride]
Time to relief of sore throat (sore throat; nasal inhalation every three hours): one
Development of full sore throat (sore throat; spray directly into the throat at first sign of soreness, every three to four hours for two days, at least four occasions): never occurred
Effectiveness of treatment at lengthened intervals (cold virus [1]; colds or flu, intervals lengthened to six or more hours, compared with one to four hours): considerably less effective
Number of subjects reporting relief obtained in 1 day (cold virus [1]; [5]): 5
Number of subjects reporting relief obtained in 2 days (cold virus [1]; [5]): 3
Number of subjects reporting relief obtained in 3 days (cold virus [1]; [5]): 2
Toxic levels ([2]; general statement): No toxic levels
Adverse side effects of ingested lysine ([2]; high doses ingested as tablets): gastric distress
Effect on herpes simplex II outbreak (herpes simplex II; one test subject with twenty year history, nasal spray every three hours for one day): stopped the outbreak
Response of genital herpes outbreaks (herpes simplex II; one test subject, nasal spray plus lysine tablets, compared with tablets alone): responded much faster than with the tablets alone
Prevention of herpes outbreaks (herpes simplex II; same test subject, regular use of the nasal spray): prevented herpes outbreaks to the point of almost eliminating them altogether
Cold symptoms after exposure (cold virus [3]): never felt cold symptoms at all
Secondary canker sore lesions (canker sore; one test subject, application repeated every three or four hours): no secondary lesions developed
Time until canker sore completely healed (canker sore; one test subject, application repeated every three or four hours, sores previously lasted five to ten days): three to five
Pain associated with canker sore (canker sore; one test subject, solution applied directly to the lesion): alleviated as soon as the solution was applied
Healing response of cold sores and canker sores (canker sore; solution applied directly, in contrast to ingestion of lysine tablets alone): fast healing response
Onset of lessening of lung symptoms [4]: lessened almost immediately
Time until symptoms cleared up completely [4]: one to three

— patent US6362225B1 (priority 1999, dated 2002)
